Consider two compounds from patent publication US7375098B2, “8β-vinyl-11β-(ω-substituted)alkyl-estra-1,3,5(10)-trienes” (Schering A.G., priority 2003, dated 2008).

The target in data set [1] is T1, ERα (Homo sapiens, UniProt P03372).
T1 construct: pSG5-ERα/β FL (Heg0/ERβ0); expressed in transfected cells; host or cells: U-20S (U-2 OS) cells, transient transfection with FuGENE 6
T1 sequence (P03372 1-595): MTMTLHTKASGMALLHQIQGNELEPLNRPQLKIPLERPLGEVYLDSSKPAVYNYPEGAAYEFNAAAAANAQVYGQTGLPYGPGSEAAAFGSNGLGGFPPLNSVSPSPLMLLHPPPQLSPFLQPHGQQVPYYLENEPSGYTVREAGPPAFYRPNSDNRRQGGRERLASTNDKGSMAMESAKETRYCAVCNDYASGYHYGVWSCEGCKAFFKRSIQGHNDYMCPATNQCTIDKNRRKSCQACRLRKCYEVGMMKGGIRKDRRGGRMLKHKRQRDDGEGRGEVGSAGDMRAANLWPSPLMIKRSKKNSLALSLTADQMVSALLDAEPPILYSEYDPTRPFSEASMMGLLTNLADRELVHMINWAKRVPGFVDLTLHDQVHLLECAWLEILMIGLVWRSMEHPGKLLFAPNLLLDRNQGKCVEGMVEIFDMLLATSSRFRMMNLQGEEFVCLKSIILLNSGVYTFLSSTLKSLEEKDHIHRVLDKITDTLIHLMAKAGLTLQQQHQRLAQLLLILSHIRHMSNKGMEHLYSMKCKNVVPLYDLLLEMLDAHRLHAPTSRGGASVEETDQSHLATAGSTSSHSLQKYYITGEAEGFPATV
Description: Transactivation test for estrogenic agonists and antagonists, ERα, U-20S cells, luciferase reporter. The conditions noted are these: U-20S cells. Format: cell-based. As for the experimental part:
(§1) Transactivation Test for Estrogenic Agonists and Antagonists Cultivation of Cells:
(§2) The resuspension of the cells is carried out in 10 ml of D-MEM+5% CCS+PSG.
(§3) Dissemination of 100 μl of cell suspension (1×10^4 cells) per well. 6 hours after the dissemination, the transfection takes place.
(§4) The ERβα-expression plasmid (HEGO) that was used was amplified in E. coli DH5α (Invitrogen Company). The ERβ-expression plasmid (ERβ0) that was used was produced in-house and amplified in E. coli DH5α. As in the case of the ERα, the expression plasmid pSG5 was used. As a reporter plasmid, the vector pBL-LUC^+ was provided with two Tandem-EREs (estrogen-responsive elements of the vitellogenin promoter) and amplified in E. coli (XL1-Blue; Stratagene Company).
(§5) The latter are first diluted separately in a suitable volume of DMEM and incubated, before the solutions are combined and again incubated.
(§6) Incubation of solutions A and B for 5 minutes at room temperature (RT). Then solution B to be added drop by drop to solution A and mixed. Incubation of solution AB for 15 minutes at room temperature.
(§7) Dilution of the transfection mixture AB for 4 plates with 22.5 ml of D-MEM+5% CCS+PSG. […] Only 60 wells are transfixed per plate; the outside wells receive only medium.
(§8) The 10^−3M DMSO solutions are stored at −20° C. and must be readily dissolved before the removal (15 minutes, 37° C.).
(§9) The dilution stages are selected such that the final concentrations on the test plate for agonism lie in the range of 10^−7-10^−12M (for E2: 10^−8-10^−13M).
(§10) All dilution stages thus contain 1% DMSO.
(§11) After the transfection, the transfection medium is replaced by 180 μl of D-MEM+5% CCS+PSG per well.
(§12) To test for antagonism, the cells are treated in addition with estradiol. Then, 20 μl of the substance dilutions is pipetted through. The negative controls receive 20 μl of DMEM+1% DMSO per well. The final test substance concentrations are 3×10^−11 M for ERα or 3×10^−10 M for ERβ.
(§13) After the medium is suctioned off, in each case 30 μl of lysis 1× reagent (Promega; #E1531) is added to the cells and incubated for ½ hour-1 hour at room temperature while being shaken vigorously (IKA-VIBRAX-VXR, 600 rpm).
(§14) The evaluation of the measurement data is carried out by means of software assigned by the equipment manufacturer (BioLinx). […] A calculation of EC50, the efficacy and the EMR value for the agonism or the IC50 and the efficacy for the antagonism is possible by means of “MTS” software (Table 2).

In data set [2] the target is T2, ERβ (Homo sapiens, UniProt Q92731).
T2 construct: pSG5-ERα/β FL (Heg0/ERβ0); expressed in transfected cells; host or cells: U-20S (U-2 OS) cells, transient transfection with FuGENE 6
T2 sequence (Q92731 whole entry, species assumed): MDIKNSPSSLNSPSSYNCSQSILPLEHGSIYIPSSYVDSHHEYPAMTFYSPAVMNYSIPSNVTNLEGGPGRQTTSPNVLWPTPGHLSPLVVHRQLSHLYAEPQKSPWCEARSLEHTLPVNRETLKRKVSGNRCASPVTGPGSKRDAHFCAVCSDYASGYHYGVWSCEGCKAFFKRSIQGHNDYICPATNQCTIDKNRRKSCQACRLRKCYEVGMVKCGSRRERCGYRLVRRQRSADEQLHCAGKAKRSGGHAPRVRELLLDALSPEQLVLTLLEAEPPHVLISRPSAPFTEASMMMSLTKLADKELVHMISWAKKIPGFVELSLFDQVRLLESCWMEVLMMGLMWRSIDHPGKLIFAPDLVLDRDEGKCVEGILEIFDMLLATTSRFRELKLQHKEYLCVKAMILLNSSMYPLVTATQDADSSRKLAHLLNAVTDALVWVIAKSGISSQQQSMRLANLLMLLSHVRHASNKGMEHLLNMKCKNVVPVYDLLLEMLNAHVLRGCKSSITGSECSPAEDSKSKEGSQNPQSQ
The data set can be described thus: Transactivation test for estrogenic agonists and antagonists, ERβ, U-20S cells, luciferase reporter. It is filed as cell-based. As for the experimental part: as §1, §2, §3, §4, §5, §6, §7, §8, §9, §10, §11, §12, §13, §14

Data set [3] is described as follows: Solubility Sw (turbidimetry). The conditions noted are these: pH 7.4 at 25° C.
A short description of data set [4]: Distribution coefficient log D (HPLC method).

Consider `C=C[C@@]12CCc3cc(O)ccc3C1[C@@H](CCCCC[C@H](O)C(F)(F)C(F)(F)C(F)(F)F)C[C@@]1(C)C2CC[C@@H]1O` (mixture of isomers) [22b D1/2, 11β-[(R/S)-9,9,9,8,8,7,7-Heptafluoro-6-hydroxynonyl]-8-vinyl-estra-1,3,5(10)-triene-3,17β-diol], for which, in data set [1] (luciferase activity), the “Efficacy[%] ERα” value came out at 90%. In addition, the “EMR (EC50 )[%] ERα” value in data set [1] (potency relative to reference fulvestrant = 100) was 1.6%. For the same compound, the “EMR (EC50 )[%] ERβ” value in data set [2] (U-20S cells, potency relative to reference = 100) came out at 29%. Moreover, in data set [2] (read-out: Efficacy[%] ERβ), the Emax was 100%. For the same compound, in data set [3], the Sw was determined as 7 mg/I. This compound also registered a chromatographic logD in data set [4] (pH 7) of 5.1.

`C[C@]12CC[C@@H]3c4ccc(O)cc4C[C@@H](CCCCCCCCC[S+]([O-])CCCC(F)(F)C(F)(F)F)[C@H]3[C@@H]1CC[C@@H]2O` (some centres unmarked) [Ref.^1, fulvestrant, reference compound] had a Sw in data set [3] of less than 1 mg/I. The “Log D” value in data set [4] (HPLC method, pH: 7.0, 25° C.) is listed as 5.31.
